Source: ChEMBL document CHEMBL1125524, “Adenosine A1 antagonists. 2. Structure-activity relationships on diuretic activities and protective effects against acute renal failure” (J Med Chem, 1992)

What was measured:
Rattus norvegicus [1] = assay: Ratio of urinary excretion value (urinary volume) in treated rats to that in control rats, at a peroral dose of 0.1 mg/Kg; assay type: functional, Urine
Rattus norvegicus [2] = assay: Serum creatinine concentration measured after intraperitoneal administration of 1 mg/kg of compound to rats(vehicle 5.43+/-0.11); assay type: functional
Rattus norvegicus [3] = assay: Ratio of sodium ion/potassium ion concentration in treated rats to that in control rats, at a peroral dose of 1.6 mg/Kg; assay type: functional
Rattus norvegicus [4] = assay: Oral diuretic activity was measured after oral administration of 0.4 mg/kg to rats(control volume is 0.83+/-0.08); assay type: functional, Urine
Rattus norvegicus [5] = assay: Ratio of urinary excretion value (Na+ concentration) in treated rats to that in control rats, at a peroral dose of 6.25 mg/Kg; assay type: functional, Urine
Rattus norvegicus [6] = assay: Ratio of urinary excretion value (urinary volume) in treated rats to that in control rats, at a peroral dose of 0.4 mg/Kg; assay type: functional, Urine
Rattus norvegicus [7] = assay: Ratio of urinary excretion value (Na+ concentration) in treated rats to that in control rats, at a peroral dose of 25 mg/Kg; assay type: functional, Urine
Rattus norvegicus [8] = assay: Ratio of urinary excretion value (urinary volume) in treated rats to that in control rats, at a peroral dose of 1.6 mg/Kg; assay type: functional, Urine
Rattus norvegicus [9] = assay: Ratio of urinary excretion value (urinary volume) in treated rats to that in control rats, at a peroral dose of 6.25 mg/Kg; assay type: functional, Urine
Rattus norvegicus [10] = assay: Percent inhibition of Urea nitrogen by the compound given as ratio of UN value in treated to vehicle treated ones after intraperitoneal administration of 1 mg/kg of compound to rats(vehicle 182.5+/-3.4); assay type: functional; conditions: ip
Rattus norvegicus [11] = assay: Ratio of urinary excretion value (urinary volume) in treated rats to that in control rats, at a peroral dose of 25 mg/Kg; assay type: functional, Urine
Rattus norvegicus [12] = assay: Ratio of urinary excretion value (Na+ concentration) in treated rats to that in control rats, at a peroral dose of 0.1 mg/Kg; assay type: functional, Urine
Rattus norvegicus [13] = assay: Percent inhibition of serum creatinine by the compound given as ratio of Cr value in treated to vehicle treated ones after intraperitoneal administration of 1 mg/kg of compound to rats(vehicle 5.43+/-0.11); assay type: functional; conditions: ip
Rattus norvegicus [14] = assay: Ratio of urinary excretion value (Na+ concentration) in treated rats to that in control rats, at a peroral dose of 1.6 mg/Kg; assay type: functional, Urine
Rattus norvegicus [15] = assay: Effect on urinary excretion potassium and sodium after oral administration of 0.1 mg/kg to rats(potassium and sodium excretion in control rat is 0.169+/-0.018); assay type: functional, Urine
Rattus norvegicus [16] = assay: Ratio of sodium ion/potassium ion concentration in treated rats to that in control rats, at a peroral dose of 0.4 mg/Kg; assay type: functional
Rattus norvegicus [17] = assay: Effect on urinary excretion potassium and sodium after oral administration of 25 mg/kg to rats(potassium and sodium excretion in control rat is 0.129+/-0.026); assay type: functional, Urine
Rattus norvegicus [18] = assay: Ratio of sodium ion/potassium ion concentration in treated rats to that in control rats, at a peroral dose of 25 mg/Kg; assay type: functional
Rattus norvegicus [19] = assay: Effect on urinary excretion potassium and sodium after oral administration of 0.4 mg/kg to rats(potassium and sodium excretion in control rat is 0.132+/-0.010); assay type: functional, Urine
Rattus norvegicus [20] = assay: Oral diuretic activity was measured after oral administration of 1.6 mg/kg to rats(control volume is 0.91+/-0.08); assay type: functional, Urine
Rattus norvegicus [21] = assay: Ratio of sodium ion/potassium ion concentration in treated rats to that in control rats, at a peroral dose of 0.1 mg/Kg; assay type: functional
Rattus norvegicus [22] = assay: Oral diuretic activity was measured after oral administration of 0.1 mg/kg to rats(control volume is 1.10+/-0.09); assay type: functional, Urine
Rattus norvegicus [23] = assay: Oral diuretic activity was measured after oral administration of 25 mg/kg to rats(control volume is 1.00+/-0.13); assay type: functional, Urine
Rattus norvegicus [24] = assay: Urea nitrogen concentration measured after intraperitoneal administration of 1 mg/kg of compound to rats(vehicle 182.5+/-3.4); assay type: functional
Rattus norvegicus [25] = assay: Ratio of urinary excretion value (Na+ concentration) in treated rats to that in control rats, at a peroral dose of 0.4 mg/Kg; assay type: functional, Urine
Rattus norvegicus [26] = assay: Effect on urinary excretion potassium and sodium after oral administration of 1.6 mg/kg to rats(potassium and sodium excretion in control rat is 0.193+/-0.016); assay type: functional, Urine
Rattus norvegicus [27] = assay: Urea nitrogen concentration measured after intraperitoneal administration of 1 mg/kg of compound to rats(vehicle 138.8+/-7.8); assay type: functional
Rattus norvegicus [28] = assay: Urea nitrogen concentration measured after intraperitoneal administration of 0.1 mg/kg of compound to rats(vehicle 171.3+/-6.4); assay type: functional
Rattus norvegicus [29] = assay: Percent inhibition of Urea nitrogen by the compound given as ratio of UN value in treated to vehicle treated ones after intraperitoneal administration of 1 mg/kg of compound to rats(vehicle 138.8+/-7.8); assay type: functional; conditions: ip
Rattus norvegicus [30] = assay: Serum creatinine concentration measured after intraperitoneal administration of 1 mg/kg of compound to rats(vehicle 4.74+/-0.31); assay type: functional
Rattus norvegicus [31] = assay: Percent inhibition of Urea nitrogen by the compound given as ratio of UN value in treated to vehicle treated ones after intraperitoneal administration of 0.1 mg/kg of compound to rats(vehicle 171.3+/-6.4); assay type: functional; conditions: ip
Rattus norvegicus [32] = assay: Effect on urinary excretion potassium and sodium after oral administration of 1.6 mg/kg to rats(potassium and sodium excretion in control rat is 0.174+/-0.013); assay type: functional, Urine
Rattus norvegicus [33] = assay: Percent inhibition of serum creatinine by the compound given as ratio of Cr value in treated to vehicle treated ones after intraperitoneal administration of 0.1 mg/kg of compound to rats(vehicle 6.90+/-0.2); assay type: functional; conditions: ip
Rattus norvegicus [34] = assay: Oral diuretic activity was measured after oral administration of 1.6 mg/kg to rats(control volume is 0.86+/-0.09); assay type: functional, Urine
Adenosine receptor A1 = molecular target: T1, Adenosine receptor A1 (Cavia porcellus, UniProt P47745)
T1 sequence (P47745 whole entry): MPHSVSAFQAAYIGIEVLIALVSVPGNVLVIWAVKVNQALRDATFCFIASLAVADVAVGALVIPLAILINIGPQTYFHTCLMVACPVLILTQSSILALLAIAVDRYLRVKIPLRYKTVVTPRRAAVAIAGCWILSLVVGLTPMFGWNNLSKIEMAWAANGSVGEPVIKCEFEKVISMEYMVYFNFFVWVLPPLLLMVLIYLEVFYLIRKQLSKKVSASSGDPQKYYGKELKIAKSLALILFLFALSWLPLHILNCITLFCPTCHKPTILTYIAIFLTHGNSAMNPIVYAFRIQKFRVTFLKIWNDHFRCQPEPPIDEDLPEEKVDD
Description: Binding affinity against adenosine A1 receptor in guinea pig forebrain membranes using N6-[3H]cyclohexyladenosine as radioligand

Rattus norvegicus [35] = assay: Serum creatinine concentration measured after intraperitoneal administration of 0.1 mg/kg of compound to rats(vehicle 6.90+/-0.2); assay type: functional
Rattus norvegicus [36] = assay: Percent inhibition of serum creatinine by the compound given as ratio of Cr value in treated to vehicle treated ones after intraperitoneal administration of 1 mg/kg of compound to rats(vehicle 4.74+/-0.31); assay type: functional; conditions: ip

Compound: CCCn1c(=O)c2[nH]c(C3CCCC3)nc2n(CCC)c1=O [1,3-DIPROPYL-8-CYCLOPENTYLXANTHINE [DPCPX]]
- T/C (Rattus norvegicus [1]): 1.24
- Cr (Rattus norvegicus [2]): 3.75 mg/dL
- Na+/K+ (Rattus norvegicus [3]): 1.57
- Urine volume (Rattus norvegicus [4]): 2.05 ml 6hr-1 100g-1
- T/C (Rattus norvegicus [5]): 1.98
- T/C (Rattus norvegicus [6]): 2.47
- T/C (Rattus norvegicus [7]): 2.46
- T/C (Rattus norvegicus [8]): 2.79
- T/C (Rattus norvegicus [9]): 1.87
- inhibition in vivo at 1 mg/kg (Rattus norvegicus [10]): 27%
- T/C (Rattus norvegicus [11]): 1.93
- T/C (Rattus norvegicus [12]): 1.27
- inhibition in vivo at 1 mg/kg (Rattus norvegicus [13]): 31%
- T/C (Rattus norvegicus [14]): 2.33
- Na (Rattus norvegicus [15]): 0.215 m equiv 6hr-1 100g-1
- Na+/K+ (Rattus norvegicus [16]): 1.76
- Na (Rattus norvegicus [17]): 0.316 m equiv 6hr-1 100g-1
- Na+/K+ (Rattus norvegicus [18]): 1.27
- Na (Rattus norvegicus [19]): 0.302 m equiv 6hr-1 100g-1
- Urine volume (Rattus norvegicus [20]): 2.54 ml 6hr-1 100g-1
- Na+/K+ (Rattus norvegicus [21]): 1.54
- Urine volume (Rattus norvegicus [22]): 1.36 ml 6hr-1 100g-1
- Urine volume (Rattus norvegicus [23]): 1.93 ml 6hr-1 100g-1
- UN (Rattus norvegicus [24]): 131.7 mg/dL
- T/C (Rattus norvegicus [25]): 2.28
- Na (Rattus norvegicus [26]): 0.449 m equiv 6hr-1 100g-1

Compound: Cn1c(=O)c2nc(C3CCCC3)[nH]c2n(C)c1=O [8-CYCLOPENTYLTHEOPHYLLINE]
- UN (Rattus norvegicus [27]): 63.6 mg/dL
- UN (Rattus norvegicus [28]): 168.7 mg/dL
- Na+/K+ (Rattus norvegicus [3]): 1.12
- inhibition in vivo at 1 mg/kg (Rattus norvegicus [29]): 54%
- Cr (Rattus norvegicus [30]): 2.22 mg/dL
- T/C (Rattus norvegicus [5]): 1.82
- inhibition in vivo at 0.1 mg/kg (Rattus norvegicus [31]): 1%
- T/C (Rattus norvegicus [8]): 1.23
- T/C (Rattus norvegicus [9]): 1.64
- Na (Rattus norvegicus [32]): 0.217 m equiv 6hr-1 100g-1
- inhibition in vivo at 0.1 mg/kg (Rattus norvegicus [33]): -5%
- Urine volume (Rattus norvegicus [34]): 1.06 ml 6hr-1 100g-1
- T/C (Rattus norvegicus [14]): 1.25
- Ki (Adenosine receptor A1): 95 nM
- Cr (Rattus norvegicus [35]): 7.26 mg/dL
- inhibition in vivo at 1 mg/kg (Rattus norvegicus [36]): 53%
